The values below are quoted from earlier work in article PMC2764006 (Journal of molecular biology, 2009).

The conditions of this data set: single-molecule FRET.

polyproline: the persistence length lp is recorded as 44 Å.
